Assays:
[1] = Absorbance, emission and excitation wavelengths evaluation; format: physicochemical; conditions: 10 µM in SEC buffer
Description: Fluorescent compounds were analyzed on a Tecan Spark to evaluate the correct parameters to further set the biochemical characterizations. The absorbance was evaluated in a range from 300 to 700 nm, with a wavelength step size of 5 nm. Based on the absorbance values, we settled a 3D fluorescence emission scan to evaluate the excitation and emission peaks. The analysis was conducted using the same buffer mix, as already described. The excitation range was set between 390 and 450 nm for both molecules, with a step size of 5 nm. The emission range was set between 485 and 700 nm for both molecules, with a step size of 5 nm. All these characterizations were performed on a Tecan Spark using Greiner Bio-One 96-UV-Transparent Microplates and the tests were carried out using a total volume of 100 μl for each well.

[2] = target: T1, ALDH1A3 (Homo sapiens, UniProt P47895); test: IC50 and Ki evaluation, enzymatic inhibition with acetaldehyde; format: biochemical
T1 construct: E. coli BL21 (DE3) were transformed with the full-length expression vector of each isoform; His-tag; made in house; host or cells: E. coli BL21 (DE3)
T1 sequence (P47895 1-512): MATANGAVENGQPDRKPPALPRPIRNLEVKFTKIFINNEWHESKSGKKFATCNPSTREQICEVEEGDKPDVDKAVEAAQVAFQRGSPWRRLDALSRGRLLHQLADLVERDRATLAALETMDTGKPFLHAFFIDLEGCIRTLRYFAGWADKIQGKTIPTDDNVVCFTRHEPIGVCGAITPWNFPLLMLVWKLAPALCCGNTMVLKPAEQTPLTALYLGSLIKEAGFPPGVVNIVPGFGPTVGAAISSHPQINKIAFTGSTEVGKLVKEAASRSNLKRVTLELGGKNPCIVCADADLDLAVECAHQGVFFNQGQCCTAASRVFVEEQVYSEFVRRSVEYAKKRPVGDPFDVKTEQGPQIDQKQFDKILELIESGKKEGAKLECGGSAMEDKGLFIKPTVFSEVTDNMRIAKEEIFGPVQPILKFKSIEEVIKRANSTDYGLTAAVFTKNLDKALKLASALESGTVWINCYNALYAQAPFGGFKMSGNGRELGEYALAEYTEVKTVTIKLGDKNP
Description: Initially, the inhibitory activities of our fluorescent probes were screened at a fixed concentration of 50 μM using a Tecan Sunrise 96 Multiplate Reader with Greiner Bio-One 96-UV-Transparent Microplates. The analysis was performed in triplicate in a total volume of 100 μl per well containing 20 mM Tris HCl pH 8.0, 1 mM β-mercaptoethanol, 150 mM KCl, 500 μM NAD^+, […], 2.8 μM hALDH1A and 20 mM acetaldehyde. Afterwards, the inhibitory potency of the fluorescent probes was further investigated, evaluating the IC50 parameter. The enzymatic inhibition assays were performed in triplicate in a total volume of 100 μl per well containing 20 mM Tris HCl pH 8.0, 1 mM β-mercaptoethanol, 150 mM KCl, 500 μM NAD^+, 2.8 μM hALDH1A and 20 mM acetaldehyde in the presence of different probe concentrations, from 200 μM to 1.5625 μM. The DMSO final concentration allowed was up to 15%. Only for ALDH1A3 in complex with Probe 10, the Ki affinity parameter was calculated by performing the analysis in triplicate in a total volume of 100 μl per well containing 20 mM Tris HCl pH 8.0, 1 mM β-mercaptoethanol, 150 mM KCl, 500 μM NAD^+ and 2.8 μM ALDH1As. Due to chemical nature of Probe 10 and Probe 11, we set up the enzymatic assay assuming a competitive inhibition using different compounds concentration, from 200 μM to 1 μM, and different acetaldehyde concentrations, from 20 mM to 2.5 mM. Each reaction mix was preincubated for 10 min at 25 °C before the analysis. The catalytic activity was measured by monitoring the absorbance at 340 nm (εNADH = 6220 M^−^1 cm^−1) for 30 min at 25 °C and the inhibitory parameters were calculated by processing the raw data on SigmaPlot[53].

[3] = system: GL261 glioblastoma in left striatum; test: In vivo labeling of orthotopic GL261 glioblastoma after i.p. injection; design: species or system mice; conditions: 6 days after implantation, 6 h after injection, probe 10 18 μg, probe 11 5 μg
Description: We used in vitro and in vivo cells from a mouse high grade glioma cell line, GL261[56]. Briefly, ten 2- to 3-month-old female C57BlC mice were stereotactically implanted under deep general anesthesia (isoflurane supplemented with nitrous oxide) with 1 × 10^5 GL261 glioblastoma cells. The cells were stereotactically inoculated through a burr hole by a Hamilton syringe into the left striatum (coordinates: 1 mm anteroposterior and 1 mm lateral from bregma, at a depth of 3 mm). All experimental procedures were conducted in accordance with the European Communities Council Directive of the 24th of November 1986 (86/609 EEC), with the Recommendation 18/06/2007, Dir. 2010/63/UE and with the Italian law for care and use of experimental animals (DL116/92) and were approved by the Italian Ministry of Health (prot. E669C.15) and by the Bioethical Committee of the University of Turin. All animals were housed under a 12-h light-dark cycle in an environmentally controlled room. All experiments were designed to minimize the numbers of animals used and their discomfort. In each experiment, animals with tumors were allocated to two groups and i.p. injected with probe 10 (18 μg) or probe 11 (5 μg). […] Quantitative and phenotypic evaluations were made on the images acquired with a Leica TCS SP5 confocal microscope. […]

| SMILES | Abs [1] [nm] | Em [1] [nm] | Ex [1] [nm] | inhibition of ALDH1A3 [2] | mechanism of action (inhibition) [2] | Ki ([2]; acetaldehyde substrate, full competitive model) [nM] | labelling of the growing tumor in vivo [3] |
| --- | --- | --- | --- | --- | --- | --- | --- |
| COc1cc(/C=C/C(O)=C/C(=O)/C=C/c2ccc(OCc3cn(CCOc4ccc(C=O)cc4)nn3)c(OC)c2)ccc1O [Probe 10] | 410 | 545 | 420 | strongly inhibited | competitive | 880 | only Probe 10 was able to selectively label the growing tumor |
| CCOC(=O)Cn1cc(COc2ccc(/C=C/C(=O)/C=C(O)/C=C/c3ccc(O)c(OC)c3)cc2OC)nn1 [Probe 11] | 410 | 545 | 420 | no inhibitory effect | – | – | does not penetrate to any appreciable level the tumor cells in vivo |
